Here are results for twelve compounds from patent US20250051277A1, “DELIVERY OF THERAPEUTIC ALKALOID COMPOUNDS” (Sensorium Therapeutics, Inc., priority 2021, published 2025).

Like-named read-outs stand apart in the source and are kept apart here.

The format of series [1] is physicochemical. As to conditions: SGF with pepsin, pH 1.5, 37° C.; for Condition 1 Conversion (%): 0.5 mM; for Condition 1 Conversion (%), first value of pair x/y: first of two values; for Condition 1 Conversion (%), second value of pair x/y: second of two values.
Series [2] is classed as physicochemical. As to conditions: DI water, 25° C., 0.5 mM.

On to `COc1ccc([C@@]23CCC(=NNC(=O)Nc4cccc(O)c4)C[C@@H]2N(C)CC3)cc1OC` [Compound 251, 2-[(3aS,7aS)-3a-(3,4-dimethoxyphenyl)-1-methyloctahydro-6H-indol-6-ylidene)-N-(3-hydroxyphenyl)hydrazine-1-carboxamide], for which the “Condition 1 Conversion (%)” value came to 6.91% in series [1] (time 1 min); 100% in series [1] (time 5 min); 100% in series [1] (time 30 min); 100% in series [1] (time 1 h); 100% in series [1] (time 4 h); 100% in series [1] (time 24 h). Besides, the “Condition 2 Conversion (%)” value in series [2] (time 1 min) was found to be 0%; in series [2] (time 5 min) it was 0%; in series [2] (time 30 min), 0%; in series [2] (time 1 h), 0%; in series [2] (time 4 h) it was 0%; in series [2] (time 24 h), 15.18%.

`COc1ccc([C@@]23CCC(=NOCCC45CC6CC(CC(C6)C4)C5)C[C@@H]2N(C)CC3)cc1OC` [Compound 276, (3aS,7aS)-N-[2-(1-adamantyl)ethoxy]-3a-(3,4-dimethoxyphenyl)-1-methyl-2,3,4,5,7,7a-hexahydroindol-6-imine]: the “Condition 1 Conversion (%)” value in series [1] (time 1 min) turned out to be 0%; in series [1] (time 5 min) it was 0%; in series [1] (time 30 min), 0%; in series [1] (time 1 h), 2.77%; in series [1] (time 4 h), 5.48%; in series [1] (time 24 h) it was 5.5%. Further, the “Condition 2 Conversion (%)” value in series [2] (time 1 min), in series [2] (time 5 min), in series [2] (time 30 min), in series [2] (time 1 h), in series [2] (time 4 h) and in series [2] (time 24 h) was 0% throughout.

`COc1ccc([C@@]23CC/C(=N/NC(=O)Nc4ccccc4Cl)C[C@@H]2N(C)CC3)cc1OC` [Compound 270, 1-[(Z)-[(3aS,7aS)-3a-(3,4-dimethoxyphenyl)-1-methyl-2,3,4,5,7,7a-hexahydroindol-6-ylidene]amino]-3-(2-chlorophenyl)urea]: the “Condition 1 Conversion (%)” value in series [1] (time 1 min) came out at 0%; in series [1] (time 5 min), 0%; in series [1] (time 30 min) it was 1%; in series [1] (time 1 h) it was 1%. Besides, the “Condition 2 Conversion (%)” value in series [2] (time 1 min), in series [2] (time 5 min), in series [2] (time 30 min) and in series [2] (time 1 h) was 0% each time.

In the case of `COc1ccc([C@@]23CCC(=NOCC(=O)OC(C)(C)C)C[C@@H]2N(C)CC3)cc1OC` [Compound 202, tert-butyl 2-[[(3aS,7aS)-3a-(3,4-dimethoxyphenyl)-1-methyl-2,3,4,5,7,7a-hexahydroindol-6-ylidene]amino]oxyacetate], the “Condition 1 Conversion (%)” value in series [1] (time 1 min), in series [1] (time 5 min) and in series [1] (time 30 min) was 0% each time. The “Condition 1 Conversion (%), first value of pair x/y” value in series [1] (time 1 h) was 1.12%; in series [1] (time 4 h), 3.01%; in series [1] (time 24 h), 64.4%. The “Condition 1 Conversion (%), second value of pair x/y” value in series [1] (time 1 h) is reported as 0%; in series [1] (time 4 h) it was 6.42%; in series [1] (time 24 h), 6.42%. In addition, the “Condition 2 Conversion (%)” value in series [2] (time 1 min), in series [2] (time 5 min), in series [2] (time 30 min), in series [2] (time 1 h), in series [2] (time 4 h) and in series [2] (time 24 h) was 0% each time.

Turning to `COc1ccc([C@@]23CCC(=NNC(=O)Nc4ccc(S(C)(=O)=O)cc4)C[C@@H]2N(C)CC3)cc1OC` [Compound 255, 1-[[(3aS,7aS)-3a-(3,4-dimethoxyphenyl)-1-methyl-2,3,4,5,7,7a-hexahydroindol-6-ylidene]amino]-3-(4-methylsulfonylphenyl)urea], the “Condition 1 Conversion (%)” value in series [1] (time 1 min) came to 20.9%; in series [1] (time 5 min), 65.2%; in series [1] (time 30 min), 88.6%; in series [1] (time 1 h), 89.8%; in series [1] (time 4 h), 88.1%; in series [1] (time 24 h), 88%. In addition, the “Condition 2 Conversion (%)” value in series [2] (time 1 min) came to 0%; in series [2] (time 5 min), 0%; in series [2] (time 30 min), 0%; in series [2] (time 1 h), 2.4%; in series [2] (time 4 h) it was 8.4%; in series [2] (time 24 h), 6%.

On to `COc1ccc([C@@]23CC/C(=N/OC45CC6CC(CC(C6)C4)C5)C[C@@H]2N(C)CC3)cc1OC` [Compound 274, (Z,3aS,7aS)-N-(1-adamantyloxy)-3a-(3,4-dimethoxyphenyl)-1-methyl-2,3,4,5,7,7a-hexahydroindol-6-imine], for which the “Condition 1 Conversion (%)” value is listed as 0% in series [1] (time 1 min); 0% in series [1] (time 5 min); 0% in series [1] (time 30 min); 0% in series [1] (time 1 h); 35.5% in series [1] (time 4 h); 39.91% in series [1] (time 24 h). In addition, the “Condition 2 Conversion (%)” value in series [2] (time 1 min), in series [2] (time 5 min), in series [2] (time 30 min), in series [2] (time 1 h), in series [2] (time 4 h) and in series [2] (time 24 h) was 0% in each case.

Regarding `COc1ccc([C@]23CCN(C)[C@H]2CC2(CC3)OC[C@H]([C@@H](O)[C@@H](O)Cn3c4nc(=O)[nH]c(=O)c-4nc4cc(C)c(C)cc43)O2)cc1OC` (stereo partly drawn) [Compound 174, 10-[(2S,3S)-3-[(3′aS,4R)-3′a-(3,4-dimethoxyphenyl)-1′-methyl-spiro[1,3-dioxolane-2,6′-2,3,4,5,7,7a-hexahydroindole]-4-yl]-2,3-dihydroxy-propyl]-7,8-dimethyl-benzo[g]pteridine-2,4-dione], the “Condition 1 Conversion (%)” value in series [1] (time 1 min), in series [1] (time 5 min), in series [1] (time 30 min), in series [1] (time 1 h), in series [1] (time 4 h) and in series [1] (time 24 h) was 0% in each case.

`CCCC1CO[C@]2(CC[C@@]3(c4ccc(OC)c(OC)c4)CCN(C)C3C2)O1` (stereo partly drawn) [Compound 212, (2R,3′aS)-3′a-(3,4-dimethoxyphenyl)-1′-methyl-4-propyl-spiro[1,3-dioxolane-2,6′-2,3,4,5,7,7a-hexahydroindole]]: the “Condition 1 Conversion (%)” value in series [1] (time 1 min), in series [1] (time 5 min), in series [1] (time 30 min), in series [1] (time 1 h), in series [1] (time 4 h) and in series [1] (time 24 h) was 0% in each case.

In the case of `COc1ccc([C@]23CCN(C)[C@H]2CC2(CC3)OCC(c3ccc([N+](=O)[O-])cc3)O2)cc1OC` (some centres unmarked) [Compound 114, (3a'S,7a'S)-3a′-(3,4-dimethoxyphenyl)-1′-methyl-4-(4-nitrophenyl)octahydrospiro[[1,3]dioxolane-2,6′-indole]], the “Condition 1 Conversion (%)” value in series [1] (time 1 min), in series [1] (time 5 min), in series [1] (time 30 min), in series [1] (time 1 h), in series [1] (time 4 h) and in series [1] (time 24 h) was 0% throughout.

Take `COc1ccc([C@@]23CCC(=NNC(=O)c4ccncc4)C[C@@H]2N(C)CC3)cc1OC` [Compound 157, N-[[(3aS,7aS)-3a-(3,4-dimethoxyphenyl)-1-methyl-2,3,4,5,7,7a-hexahydroindol-6-ylidene]amino]pyridine-4-carboxamide]: the “Condition 1 Conversion (%)” value in series [1] (time 1 min), in series [1] (time 5 min), in series [1] (time 30 min), in series [1] (time 1 h), in series [1] (time 4 h) and in series [1] (time 24 h) was 100% each time.

`CCCC1CO[C@@]2(CC[C@@]3(c4ccc(OC)c(OC)c4)CCN(C)C3C2)O1` (stereo partly drawn) [Compound 238, (2S,3′aS)-3′a-(3,4-dimethoxyphenyl)-1′-methyl-4-propyl-spiro[1,3-dioxolane-2,6′-2,3,4,5,7,7a-hexahydroindole]]: the “Condition 1 Conversion (%)” value in series [1] (time 1 min), in series [1] (time 5 min), in series [1] (time 30 min), in series [1] (time 1 h), in series [1] (time 4 h) and in series [1] (time 24 h) was 0% throughout.

`COc1ccc([C@]23CCN(C)[C@H]2CC2(CC3)O[C@@H]([C@@H](O)Cn3c4nc(=O)[nH]c(=O)c-4nc4cc(C)c(C)cc43)[C@@H](CO)O2)cc1OC` (stereo partly drawn) [Compound 196, 10-[(2S)-2-[(3′aS,4S,5R)-3′a-(3,4-dimethoxyphenyl)-5-(hydroxymethyl)-1′-methyl-spiro[1,3-dioxolane-2,6′-2,3,4,5,7,7a-hexahydroindole]-4-yl]-2-hydroxy-ethyl]-7,8-dimethyl-benzo[g]pteridine-2,4-dione]: the “Condition 1 Conversion (%)” value in series [1] (time 1 min), in series [1] (time 5 min), in series [1] (time 30 min), in series [1] (time 1 h), in series [1] (time 4 h) and in series [1] (time 24 h) was 0% throughout.
